From patent publication US8173696B2, “Inhibitors of cysteine proteases and methods of use thereof” (Baylor University, priority 2007, dated 2012)

What was measured:
Cat B = Cat B (Homo sapiens, UniProt P07858); assay: Cathepsin B inhibition in vitro; type: biochemical; conditions: Table A; read-out: Cat B IC50
Method: For in vitro cysteine protease inhibition determinations, a compound's effectiveness can be given by an IC50 value. In these assays, the enzyme to be inhibited (e.g., a cruzain or cruzipain, a rhodesain, a brucipain, a congopain, a falcipain, CPB2.8 Delta CTE, a cathepsin-L, cathepsin-B, a cathepsin-H, a cathepsin-K, a cathepsin-S) is first incubated with varying concentrations (about 20-50,000 nM) of a test compound. To this is added a short peptide substrate of the enzyme of 1 to 10 amino acids, usually a di- or tri-peptide substrate, which is labeled with either a fluorogenic or chromogenic moiety. An exemplary chromogenic moiety is p-nitro-anilide (pNA). […] Exemplary peptide substrates include Phe-Arg, Arg-Arg, Phe-Arg-X (X=Ala, Arg), and Phe-X-Ser-Arg-Gln (X=Arg, 4-aminomethyl-phenylalanine (Arm), 4-aminomethyl-N-isopropyl-phenylalanin-e (laf), 4-piperidinyl-alanine (Ppa) or 4-aminocyclohexyl-alanine (Aca)). Cleavage of the labeled substrate induces a chromogenic or fluorescent signal that is measured using spectrophotometer or a spectrofluorometer, respectively. Signals induced in the presence of varying concentrations of test compound are measured in comparison to a positive control of enzyme and substrate and a negative control of enzyme in diluent (e.g., DMSO). Spontaneous cleavage of substrate is measured in controls with substrate alone. IC50 values are determined graphically using compound inhibitor concentrations in the linear portion of a plot of inhibition versus log [I].

Cruzain = Cruzain (Trypanosoma cruzi, UniProt P25779); assay: biochemical; type: biochemical; conditions: Table A; 0.1 nM cruzain, pH 5.50, 25° C., 10 μM Z-Phe-Arg-AMC
Sequence of Cruzain (P25779 123-467): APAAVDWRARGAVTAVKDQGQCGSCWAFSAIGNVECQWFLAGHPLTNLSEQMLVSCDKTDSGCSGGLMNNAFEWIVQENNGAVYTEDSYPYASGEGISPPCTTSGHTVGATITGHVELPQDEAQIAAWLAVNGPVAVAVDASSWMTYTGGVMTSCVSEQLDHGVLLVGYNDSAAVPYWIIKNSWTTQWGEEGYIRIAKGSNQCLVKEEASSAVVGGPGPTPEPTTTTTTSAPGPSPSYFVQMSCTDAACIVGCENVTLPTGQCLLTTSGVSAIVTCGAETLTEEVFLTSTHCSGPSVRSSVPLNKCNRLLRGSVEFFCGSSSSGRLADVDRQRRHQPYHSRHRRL
Method: Cruzain (0.1 nM) in 100 mM sodium acetate buffer (pH 5.50) containing 5 mM DTT was preincubated for 5 min at 25° C. with inhibitor.

cathepsin L [1] = assay: Inhibition of activated cathepsin L in DU-145 cell lysates; type: cell-based; conditions: DU-145 cell lysates preincubated for 24 h with compound, following removal of media, replicate samples a-c; for activity (cathepsin L activity after activation): control 6.93E−03; for cps (cathepsin L activity after activation): control 26950
Method: (§1) A prostrate carcinoma derived cell line (DU-145) was maintained in free phenol red DMEM supplemented with 10% fetal bovine serum, 1% glutamine, 1% glutamax, 1% Penicillin-Streptomycin and 1 mM sodium pyruvate, at 37° C. in an atmosphere of 95% air/5% CO2. DU145 was plated at 4×10^6 cells/10 cm Petri dish for dense, super confluent density. These cultures were incubated for 3 days before collection. Twenty-four hours prior to harvesting, cells were fed with serum-free media or serum-free media containing inhibitors at a final concentration of 20 μM. On the day of harvesting, the serum-free medium was collected for assay of Cathepsin L activity secreted in the medium. The cells were rinsed in cold PBS (pH 7.2) and collected in cold PBS containing […]. The cells were lysed using a Sonicator (Misonix 3000) at medium setting with pauses at 0° C. for temperature equilibration. Then the homogenate was centrifuged at 13,000×g for 20 min and the supernatant saved. […] Fluorescence was measured in a Fluoro Max 2 (Jobin Yvon) spectrofluorometer at an excitation wavelength of 355 nm and an emission wavelength of 460 nm. The substrate is hydrolyzed by cathepsin L and to a smaller extent by cathepsin B, therefore the activity is referred to as cathepsin L+B activity. Data analysis was performed using Prism software (GraphPad version 4). Data corresponding to cathepsin L activity (after activation) in cell lysates preincubated for 24 h with Compound 14 and following the removal of media is summarized in Table 5 below. Data corresponding to cathepsin L activity (after activation) in cell lysates preincubated for 24 h with Compound 27 and following the removal of media is summarized in Table 6 below.

cathepsin L [2] = assay: Inhibition of activated cathepsin L secreted in DU-145 cell conditioned media; type: cell-based; conditions: compound 20 μM, replicate samples a-c
Method: as §1, with “cell conditioned media in the presence of” for “cell lysates preincubated for 24 h with”, “14 (20 μM)” for “14 and following the removal of media”, “Table 3” for “Table 5”, “27 (20 μM)” for “27 and following the removal of media”, “Table 4” for “Table 6”

Human liver cathepsin L = biological target: T1, Human liver cathepsin L (Homo sapiens, UniProt P07711); assay: Cathepsin L inhibition in vitro (Z-FR-AMC fluorescence); type: biochemical; conditions: Table A; 1 nM human liver cathepsin L, pH 5.5, 25° C., 50 μM Z-FR-AMC; read-out: Cat L IC50
T1 construct: from tissue; host or cells: human liver
T1 sequence (P07711 114-333): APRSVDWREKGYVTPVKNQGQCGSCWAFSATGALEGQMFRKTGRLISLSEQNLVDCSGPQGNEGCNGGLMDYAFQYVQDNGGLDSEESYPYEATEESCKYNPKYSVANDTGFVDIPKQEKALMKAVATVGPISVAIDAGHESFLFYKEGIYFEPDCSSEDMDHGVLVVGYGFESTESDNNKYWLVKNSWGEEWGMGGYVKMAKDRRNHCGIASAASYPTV
Method: Human liver cathepsin L (1 nM) was incubated in 50 mM sodium acetate buffer, pH 5.5 containing 1 mM EDTA, 2 mM DTT, 0.001% (v/v) brij 35 with potential inhibitors at 20 different concentrations (from 0.05 nM to 50 μM) at 25° C. for 5 minutes before 100 μL substrate (benzyloxycarbonyl-L-phenylalanyl-L-arginyl-7-amido-4-methylcoumarin, abbreviated as Z-FR-AMC, 50 μM in final assay condition) was added to the enzyme-inhibitor mixture; total volume was 200 μL. Controls were performed using enzyme alone, substrate alone, and enzyme with DMSO. […] Spectra were taken at 3-sec intervals for 3 minutes. IC50 values were determined by non-linear regression analysis using vo(inh)=VMAX/{1+10(logIC50−x)*Hillslope} and Prism software (GraphPad).

**Q.** With NC(=S)NN=C(c1cccc(Br)c1)c1cccc(Br)c1 [Compound 14, Bis(3-bromophenyl) ketone thiosemicarbazone] as the compound, how does the IC50 (Cat B) read?
**A.** > 3 µM

**Q.** What about the IC50 (Cruzain) of the same compound?
**A.** 0.024 µM

**Q.** What about the “activity (cathepsin L activity after activation)” value (cathepsin L [1]; listed as 14a) of the same compound?
**A.** 0.00161 µM/s

**Q.** What about the “activity (cathepsin L activity after activation)” value (cathepsin L [1]; listed as 14b) of the same compound?
**A.** 0.00144 µM/s

**Q.** What about the “activity (cathepsin L activity after activation)” value (cathepsin L [1]; listed as 14c) of the same compound?
**A.** 0.00129 µM/s

**Q.** And the “cps (cathepsin L activity after activation)” value (“cps” for short) (cathepsin L [1]; listed as 14a)?
**A.** 6259 cps

**Q.** What about the “cps” value (cathepsin L [1]; listed as 14b) of the same compound?
**A.** 5608 cps

**Q.** And the “cps” value (cathepsin L [1]; listed as 14c)?
**A.** 5003 cps

**Q.** What about the “activity (cathepsin L activity after activation)” value (cathepsin L [2]; control 1.50E−03, listed as 14a) of the same compound?
**A.** 0.000186 µM/s

**Q.** What about the “activity (cathepsin L activity after activation)” value (cathepsin L [2]; control 1.50E−03, listed as 14b) of the same compound?
**A.** 0.000165 µM/s

**Q.** What about the “activity (cathepsin L activity after activation)” value (cathepsin L [2]; control 1.50E−03, listed as 14c) of the same compound?
**A.** 0.000127 µM/s

**Q.** And the “cps” value (cathepsin L [2]; control 5848, listed as 14a)?
**A.** 722.5 cps

**Q.** What about the “cps” value (cathepsin L [2]; control 5848, listed as 14b) of the same compound?
**A.** 641.2 cps

**Q.** And the “cps” value (cathepsin L [2]; control 5848, listed as 14c)?
**A.** 495 cps

**Q.** What about the IC50 (Human liver cathepsin L) of the same compound?
**A.** 0.0015 µM
